14 molecules from patent publication US20230118688A1, “1H-PYRAZOLO[4,3-d]PYRIMIDINE COMPOUNDS AS TOLL-LIKE RECEPTOR 7 (TLR7) AGONISTS” (BRISTOL-MYERS SQUIBB COMPANY, priority 2020, published 2023) can be followed below.

The subject of one assay is CD69. Description: Induction of CD69 in human whole blood. In kind it is cell-based. The following applies: 17 h, CD69 surface staining, 100% set to 1 uM resiquimod. The essentials:
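Heparinized human whole blood, RPMI-diluted, incubated with TLR7 agonist (final 1 uM from 1 mM stock) for 17 h at 37 °C. CD69-PE surface staining with CD14/CD19 gating, fix/lysis, then flow cytometry; curves normalized with 1 uM resiquimod as 100%.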

The next assay has as its target T1, human TLR7 (Homo sapiens, UniProt Q9NYK1).
T1 construct: host or cells: HEK-Blue TLR7 cells (engineered human embryonic kidney cells)
T1 sequence (Q9NYK1 27-1049): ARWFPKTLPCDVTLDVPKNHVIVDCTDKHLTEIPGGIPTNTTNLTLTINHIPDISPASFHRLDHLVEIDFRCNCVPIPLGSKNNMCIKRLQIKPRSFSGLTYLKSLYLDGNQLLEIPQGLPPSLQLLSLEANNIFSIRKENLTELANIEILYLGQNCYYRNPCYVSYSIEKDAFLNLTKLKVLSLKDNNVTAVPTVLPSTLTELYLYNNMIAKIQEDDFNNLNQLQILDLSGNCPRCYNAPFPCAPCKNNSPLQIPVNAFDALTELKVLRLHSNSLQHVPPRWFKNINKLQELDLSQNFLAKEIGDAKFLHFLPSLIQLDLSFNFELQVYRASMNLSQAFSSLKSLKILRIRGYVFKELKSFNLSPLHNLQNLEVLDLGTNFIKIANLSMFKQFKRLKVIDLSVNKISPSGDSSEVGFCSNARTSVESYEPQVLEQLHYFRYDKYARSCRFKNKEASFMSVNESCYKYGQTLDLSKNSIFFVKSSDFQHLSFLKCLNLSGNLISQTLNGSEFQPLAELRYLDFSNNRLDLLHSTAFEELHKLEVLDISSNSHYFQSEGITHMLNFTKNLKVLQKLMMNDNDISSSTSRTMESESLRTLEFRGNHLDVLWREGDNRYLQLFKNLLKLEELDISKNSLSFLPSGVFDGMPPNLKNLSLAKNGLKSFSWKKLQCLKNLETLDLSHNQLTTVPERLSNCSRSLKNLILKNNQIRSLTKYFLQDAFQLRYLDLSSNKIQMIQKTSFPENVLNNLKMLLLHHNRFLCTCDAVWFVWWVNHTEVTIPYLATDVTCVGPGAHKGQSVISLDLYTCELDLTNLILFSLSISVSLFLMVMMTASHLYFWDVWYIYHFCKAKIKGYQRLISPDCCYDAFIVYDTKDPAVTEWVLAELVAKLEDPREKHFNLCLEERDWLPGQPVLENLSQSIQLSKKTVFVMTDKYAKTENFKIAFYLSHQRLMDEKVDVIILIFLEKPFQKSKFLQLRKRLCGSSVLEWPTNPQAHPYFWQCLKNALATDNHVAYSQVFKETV
Description: Human TLR7 agonist activity reporter assay (HEK-Blue TLR7 cells, SEAP reporter). In kind it is cell-based. The following applies: 18 h treatment. The essentials:
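HEK-Blue TLR7 cells (15,000/well) treated with compound for 18 h at 37 °C, 5% CO2. Secreted SEAP measured with Quanti-Blue, 30 min, OD 620 nm. EC50 taken as concentration giving half-maximal response between baseline and maximum.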
(In general: In a reporter assay the amount or activity of a reporter protein is the signal.)

[1] abbreviates: Table A2, read-out: hWB CD69 EC50.
Setting [2] is: Table A2, read-out: hTLR7 Agonism EC50.
Setting [3] is: average where assay repeated, Table A1, read-out: hWB CD69 EC50.
Setting [4] is: average where assay repeated, Table A1, read-out: hTLR7 Agonism EC50.

Where two headings read alike, the source gives them in different places.

As for `CCC[C@@H](CCO)Nc1nc(N)nc2cnn(Cc3cc(CN4CCNCC4)c(F)cc3OC)c12` [Compound 167, (3S)-3-{[5-amino-1-({4-fluoro-2-methoxy-5-[(piperazin-1-yl)methyl]phenyl}methyl)-1H-pyrazolo[4,3-d]pyrimidin-7-yl]amino}hexan-1-ol], the EC50 in the assay with CD69 (setting [1]) stood at 145 nM; at human TLR7 (setting [2]), 189 nM.

Take `CCC[C@@H](CCO)Nc1nc(N)nc2cnn(Cc3cc(CN4CCN(CCO)CC4)c(F)cc3OC)c12` [Compound 168, (3S)-3-({5-amino-1-[(4-fluoro-5-{[4-(2-hydroxyethyl)piperazin-1-yl]methyl}-2-methoxyphenyl)-methyl]-1H-pyrazolo[4,3-d]pyrimidin-7-yl}amino)hexan-1-ol]: the concentration for a half-maximal effect (EC50) in the assay on CD69 (setting [1]) was 39.2 nM; at human TLR7 (setting [2]) it was 62.8 nM.

For the molecule `CCC[C@@H](CCO)Nc1nc(N)nc2cnn(Cc3cc(CNC)c(F)cc3OC)c12` [Compound 169, (3S)-3-{[5-amino-1-({4-fluoro-2-methoxy-5-[(methylamino)-methyl]phenyl}methyl)-1H-pyrazolo[4,3-d]pyrimidin-7-yl]amino}hexan-1-ol], the figures for the EC50 with CD69 (setting [1]) and on human TLR7 (setting [2]) were 6.2 nM and 43.5 nM, respectively.

In the case of `CCC[C@@H](CCO)Nc1nc(N)nc2cnn(Cc3cc(CN(C)CCN(C)C)cnc3OC)c12` [Compound 170, (3S)-3-[(5-amino-1-{[5-({[2-(dimethyl-amino)ethyl](methyl)amino}-methyl)-2-methoxypyridin-3-yl]methyl}-1H-pyrazolo[4,3-d]pyrimidin-7-yl)amino]hexan-1-ol], the EC50 in the assay on CD69 (setting [1]) was 170 nM; on human TLR7 (setting [2]), 770 nM.

As to `CCC[C@@H](CCO)Nc1nc(N)nc2cnn(Cc3cc(CN4C[C@H]5C[C@@H]4CN5C)c(F)cc3OC)c12` [Compound 171, (3S)-3-({5-amino-1-[(4-fluoro-2-methoxy-5-{[(1R,4R)-5-methyl-2,5-diazabicyclo[2.2.1]heptan-2-yl]methyl}phenyl)methyl]-1H-pyrazolo[4,3-d]pyrimidin-7-yl}amino)hexan-1-ol], the EC50 with CD69 (setting [1]) is 140 nM; on human TLR7 (setting [2]) it was 437 nM.

On to `CCC[C@@H](CCO)Nc1nc(N)nc2cnn(Cc3cc(CNCCO)c(F)cc3OC)c12` [Compound 172, (3S)-3-({5-amino-1-[(4-fluoro-5-{[(2-hydroxyethyl)amino]methyl}-2-methoxyphenyl)methyl]-1H-pyrazolo[4,3-d]pyrimidin-7-yl}amino)hexan-1-ol], for which the EC50 with CD69 (setting [1]) came to 29.8 nM; at human TLR7 (setting [2]), 167 nM.

Take `CCC[C@@H](CCO)Nc1nc(N)nc2cnn(Cc3cc(CNCCS(C)(=O)=O)c(F)cc3OC)c12` [Compound 173, (3S)-3-({5-amino-1-[(4-fluoro-5-{[(2-methanesulfonylethyl)amino]methyl}-2-methoxyphenyl)methyl]-1H-pyrazolo[4,3-d]pyrimidin-7-yl}amino)hexan-1-ol]: the EC50 with CD69 (setting [1]) was 23.2 nM; at human TLR7 (setting [2]) it was 40 nM.

Turning to `CCC[C@@H](CCO)Nc1nc(N)nc2cnn(Cc3nc(CO)ccc3OC)c12` [Compound 174, (3S)-3-[(5-amino-1-{[6-(hydroxyl-methyl)-3-methoxypyridin-2-yl]methyl}-1H-pyrazolo[4,3-d]pyrimidin-7-yl)amino]hexan-1-ol], the EC50 in the assay on CD69 (setting [1]) amounted to 41.4 nM; on human TLR7 (setting [2]) it was 96.1 nM.

Take `CCC[C@@H](CCO)Nc1nc(N)nc2cnn(Cc3cc(CN4C[C@H]5C[C@@H]4CN5CCO)c(F)cc3OC)c12` [Compound 175, (3S)-3-({5-amino-1-[(4-fluoro-5-{[(1R,4R)-5-(2-hydroxyethyl)-2,5-diazabicyclo[2.2.1]heptan-2-yl]methyl}-2-methoxyphenyl)-methyl]-1H-pyrazolo[4,3-d]pyrimidin-7-yl}amino)hexan-1-ol]: the EC50 in the assay on CD69 (setting [1]) amounted to 77 nM; on human TLR7 (setting [2]), 204 nM.

On to `CCC[C@@H](CCO)Nc1nc(N)nc2cnn(Cc3cc(CN4CC[C@H](O)C4)c(F)cc3OC)c12` [Compound 176, (3S)-1-({5-[(5-amino-7-{[(3S)-1-hydroxyhexan-3-yl]amino}-1H-pyrazolo[4,3-d]pyrimidin-1-yl)methyl]-2-fluoro-4-methoxyphenyl}methyl) pyrrolidin-3-ol], for which the EC50 with CD69 (setting [1]) is 5.7 nM; on human TLR7 (setting [2]) it was 57.2 nM.

For the molecule `CCC[C@@H](CCO)Nc1nc(N)nc2cnn(Cc3cc(CN4CCN(C)CC4)ncc3OC)c12` [Compound 177, (3S)-3-{[5-amino-1-({5-methoxy-2-[(4-methylpiperazin-1-yl)methyl]-pyridin-4-yl}methyl)-1H-pyrazolo[4,3-d]pyrimidin-7-yl]amino}hexan-1-ol], the EC50 in the assay with CD69 (setting [1]) was found to be 34.5 nM; on human TLR7 (setting [2]), 750 nM.

As for `CCC[C@@H](CCO)Nc1nc(N)nc2cnn(Cc3cc(CNC)ncc3OC)c12` [Compound 178, (3S)-3-{[5-amino-1-({5-methoxy-2-[(methylamino)methyl]pyridin-4-yl}methyl)-1H-pyrazolo[4,3-d]pyrimidin-7-yl]amino}hexan-1-ol], the results for the EC50 in the assay on CD69 (setting [1]) and at human TLR7 (setting [2]) were 33.9 nM and 617 nM, respectively.

On to “N7-butyl-1-[(2-methoxy-5- {[(1S,4S)-5-methyl-2,5- diazabicyclo[2.2.1]heptan-2- yl]methyl}phenyl)methyl]- 1H-pyrazolo[4,3-d] pyrimidine-5,7-diamine [Compound 142]”, for which the EC50 is 29.5 nM in the assay on CD69 (setting [3]) and 94.2 nM at human TLR7 (setting [4]).

In the case of “N7-butyl-1-{[2-methoxy-5- ({octahydropyrrolo[3,4-c]- pyrrol-2-yl}methyl)phenyl]- methyl}-1H-pyrazolo[4,3- d]pyrimidine-5,7-diamine [Compound 135]”, the half-maximal effective concentration (EC50) in the assay with CD69 (setting [3]) is 325 nM; on human TLR7 (setting [4]), 448 nM.

By EC50 is commonly meant the concentration at which the effect is half-maximal.
